From US9248203B2, “Fluorescent imaging with substituted cyanine dyes” (LI-COR, INC., priority 2010, dated 2016)

Key:
U87GM cells = experiment: Immunocytochemical binding, blocking and dye control assay, U87GM; format: cell-based; settings: dye control up to 5 μM, FIG. 7C
Method: RGD (Arg-Gly-Asp), the recognition motif used to bind the integrin receptors, was labeled with compound 17. The characteristics of RGD/17 conjugate and the analogous dye carboxylate 16 were evaluated in a cell-based assay.
Compound 17 was conjugated to the peptide RGD by the general procedure set forth in Example 32.
The cell lines U87GM and PC3MLN4 were assayed. Assays included binding, blocking, and carboxylate control. Serial dilutions of compound 16 were prepared at concentrations of 200-6.25 nM. Blocking was accomplished with unlabeled RGD at concentrations of 10-0.31 μM with the addition of 200 nM compound 17-RGD conjugates in all test wells. The compound 16 was evaluated as a dye control for non-specific binding at relatively high levels from 5-0.16 μM with U87GM cells and 1-0.002 μM with PC3 cells.
In the second round of testing with U87GM cells, concentrations of unlabeled RGD and compound 17/RGD were increased (FIGS. 8A and 8B). Binding assay concentrations utilized 0.8-400 nM while the blocking assay used 0.06-30 μM unlabeled RGD with an addition of 200 nM 17/RGD.

[1] = In vivo clearance, Pearl Impulse imaging; design: species or system nude mice; settings: for Total: 800 channel; for clearance in vivo (clearance series): FIG. 9, 1 nmole injected, imaged over 24 h
Method: Two nude mice were injected with 1 nmole of either compound 16 or IRDye 800CW carboxylate. They were then imaged longitudinally over the next 24 h with the Pearl Impulse imaging system. The results are presented in FIG. 9: in vivo clearance in nudes (FIG. 9A), whole body dorsal views (FIG. 9B), and the rate of clearance (FIG. 9C). The clearance data is presented below in Table 4.

[2] = Absorption wavelength of the cyanine dyes in methanol (halo substitution effect); format: physicochemical; settings: Table 2
Text: Design Principle: We analyzed the properties of a dye scaffold and related compounds and the corresponding substitution effects on the excitation and emission wavelengths. The small size of fluorine is unlikely to produce steric effects, therefore, we explored the electronic effects of fluorine and related substitutions. The Hammett equation (σ-value) is an important tool to understand the electronic effects of the substituents, therefore, we explored the correlation of the wavelength (λMeOH) and the σ-value (vide infra): […]

[3] = Summary of photophysical properties (absorption, emission, relative fluorescence, quantum yield); format: physicochemical; settings: head is a formula, relative to IRDye 800 CW
[4] = value used for the standard IRDye 800 CW; cited from earlier work

CC1(C)C(/C=C/C2=C(c3c(F)cc(F)cc3F)C(=C/C=C3/N(CCCS(=O)(=O)[O-])c4ccc(S(=O)(=O)[O-])cc4C3(C)C)/CC(C(=O)O)C2)=[N+](CCCS(=O)(=O)[O-])c2ccc(S(=O)(=O)[O-])cc21.[Na+].[Na+].[Na+] (stereo not drawn) [Compound 16]
concentration above which relatively high non-specific binding of the dye alone was noted (U87GM cells): above 2 μM
Total ([1]; 1 min): 109682.80
Total ([1]; 17 min): 282046.59
Total ([1]; 45 min): 286573.94
Total ([1]; 71 min): 266647.59
Total ([1]; 190 min): 139736.97
Total ([1]; 276 min): 76493.30
Total ([1]; 1435 min): 1652.69
clearance in vivo (clearance series) [1]: good clearance in vivo

CCCCOc1c(F)c(F)c(C2=C(/C=C/C3=[N+](CCCCS(=O)(=O)[O-])c4ccc(S(=O)(=O)[O-])cc4C3(C)C)CCC/C2=C\C=C2\N(CCCCS(=O)(=O)[O-])c3ccc(S(=O)(=O)[O-])cc3C2(C)C)c(F)c1F.[Na+].[Na+].[Na+] [Compound 24]
λMeOH [2]: 790 nm

CC1(C)C(/C=C/C2=C(c3cccc(F)c3F)C(=C/C=C3/N(CCCCS(=O)(=O)[O-])c4ccc(S(=O)(=O)[O-])cc4C3(C)C)/CCC2)=[N+](CCCCS(=O)(=O)[O-])c2ccc(S(=O)(=O)[O-])cc21.[Na+].[Na+].[Na+] [Compound 62k]
[formula] Odyssey [3]: 104%
[formula] Fluorimeter [3]: 100%

CC1(C)C(/C=C/C2=C(c3cccc(F)c3F)C(=C/C=C3/N(CCCCS(=O)(=O)[O-])c4ccc(S(=O)(=O)[O-])cc4C3(C)C)/CC(C(=O)O)C2)=[N+](CCCCS(=O)(=O)[O-])c2ccc(S(=O)(=O)[O-])cc21.[Na+].[Na+].[Na+] (stereo not drawn) [Compound 63a]
λMeOH [2]: 770 nm

CC1(C)C(=CC=C2CCCC(C=CC3=[N+](CCCCCC(=O)[O-])c4ccc(S(=O)(=O)[O-])cc4C3(C)C)=C2Oc2ccc(S(=O)(=O)[O-])cc2)N(CCCCS(=O)(=O)[O-])c2ccc(S(=O)(=O)[O-])cc21.[Na+].[Na+].[Na+].[Na+] [IRDye 800CW, reference compound]
[formula] Odyssey [3]: 100%
[formula] Fluorimeter [3]: 100%
Quantum Yield of the standard [4]: 0.07

IRDye 800CW carboxylate [reference compound]
Total ([1]; 3 min): 114295.49
Total ([1]; 19 min): 306555.97
Total ([1]; 47 min): 291381.69
Total ([1]; 74 min): 272408.13
Total ([1]; 192 min): 154950.09
Total ([1]; 278 min): 102698.54
Total ([1]; 1439 min): 2336.87
clearance in vivo (clearance series) [1]: good clearance in vivo
